Data reported in paper PMC11243327, “Design, Synthesis, Antitumor, and Antiplasmodial Evaluation of New 7-Chloroquinoline–Benzimidazole Hybrids” (Molecules, 2024).
Counter-ions that a name gives are not always drawn. Like-named read-outs stand apart in the source and are kept apart here.

Tests used:
[1] = system: P. falciparum Dd2 (multiresistant), erythrocytic stage; assay: Antiplasmodial HRP2 assay, PfDd2; type: cell-based, Plasmodium falciparum; conditions: read-out: IC50 PfDd2
Protocol: (§1) Method used to evaluate the antiplasmodial activity of quinoline–benzimidazole hybrids against two P. falciparum strains, chloroquine-sensitive (Pf3D7) and chloroquine-resistant (PfDd2), was previously described. […] Chloroquine was used as a positive control.
(§2) In brief, 96-well plates were pre-coated with the tested compounds at 1:3 dilution before ring-stage parasites were added to the complete culture medium at a hematocrit of 1.5% and a parasitemia of 0.05%. […] All compounds were analyzed in duplicate in at least two independent experiments. The IC50 was determined by nonlinear regression analysis of the logarithmic concentration-response curves using the drc package v3.0-1 of R v4.1.0 [56].

[2] = system: P. falciparum 3D7 (CQ-susceptible), erythrocytic stage; assay: Antiplasmodial HRP2 assay, Pf3D7; type: cell-based, Plasmodium falciparum; conditions: read-out: IC50 Pf3D7
Protocol: as §1, §2

HuT78 (T-cell lymphoma) = assay: Antiproliferative MTT assay, Hut78; type: cell-based, human; conditions: mean ± SD of three experiments
Protocol: (§3) The effect of the new synthesized compounds was tested on five human tumor cell lines, HeLa (human cervical adenocarcinoma; from ATCC), CaCo-2 (human colorectal adenocarcinoma), HL-60 (acute promyelocytic leukemia), HuT78 (T-cell lymphoma), and THP-1 (acute monocytic leukemia), as well as one non-tumor cell line, MRC-5 (human fetal lung fibroblasts). The MRC-5 cells were used between 24 and 26 passages. The cells were cultured in two different types of media: DMEM (Gibco Thermo Fisher Scinetific Inc., Runcorn, UK) and RPMI 1640 (Gibco, Thermo Fisher Scinetific Inc., UK). Both media were supplemented with 2 mM glutamine, fetal bovine serum (10%; heat inactivated), and antibiotics (100 U penicillin and 0.1 mg streptomycin). RPMI 1640 was additionally supplemented with 10 mM HEPES and 1 mM sodium pyruvate. Cells growing in a monolayer were cultured in DMEM, while cells growing in suspension were cultured in RPMI 1640. Cells were grown in humidified atmosphere under the conditions of 37 °C/5% CO2 gas in a CO2 incubator (IGO 150 CELLlife^TM, JOUAN, Thermo Fisher Scientific, Waltham, MA, USA).
(§4) Growth-inhibitory activity was assessed using a slightly modified procedure based on the National Cancer Institute’s protocol. Briefly, cells were seeded in 96-well microtiter plates and incubated for 24 h. They were then treated with 10^−7 to 10^−4 M concentrations of the tested compounds for an additional 72 h. After the treatment period, the effects of the tested compounds on the growth rate of the cells were examined using the MTT assay. Absorbance was measured at 595 nm using a microplate reader. The IC50 value, which represents a 50% inhibition of cell growth, and QC calculation were performed using the GraphPadPrism software (La Jolla, USA), v. 5.03. and Excel software, Office 365. The selectivity index was calculated according to the following formula: SI=IC50 value of normal cell line/IC50 value of cancer cell line
(§5) The effect of each concentration was analyzed by plotting the logarithm of the concentration of the evaluated compound against the corresponding percentage inhibition value using least squares.

[3] = system: CaCo-2 (human colorectal adenocarcinoma); assay: Antiproliferative MTT assay, CaCo-2; type: cell-based; conditions: mean ± SD of three experiments
Protocol: as §3, §4, §5

[4] = system: HL-60 (acute promyelocytic leukemia); assay: Antiproliferative MTT assay, HL-60; type: cell-based, human; conditions: mean ± SD of three experiments
Protocol: as §3, §4, §5

[5] = system: MRC-5 (human fetal lung fibroblasts); assay: Antiproliferative MTT assay, MRC-5; type: cell-based; conditions: 72 h, mean ± SD of three experiments
Protocol: as §3, §4, §5

[6] = system: HeLa (human cervical adenocarcinoma); assay: Antiproliferative MTT assay, HeLa; type: cell-based; conditions: 72 h, mean ± SD of three experiments
Protocol: as §3, §4, §5

[7] = system: THP-1 (acute monocytic leukemia); assay: Antiproliferative MTT assay, THP-1; type: cell-based, human; conditions: mean ± SD of three experiments
Protocol: as §3, §4, §5

[8] = Plasmodium falciparum, DD2, 72 h, chloroquine-resistant strain, three days incubation, HRP2-ELISA, mean ± SD, n ≥ 2
[9] = Plasmodium falciparum, 3D7, 72 h, chloroquine-sensitive strain, three days incubation, HRP2-ELISA, mean ± SD, n ≥ 2
[10] = Homo sapiens, MRC5, non-tumor cell line

N=C(NC1CCCC1)c1ccc2nc(-c3ccc(OCCNc4ccnc5cc(Cl)ccc45)c(Br)c3)[nH]c2c1 (as salt: hydrochloride) [Compound 11d, 2-{3-bromo-4-[2-(7-chloroquinolin-4-ylamino)ethoxy]phenyl}-N-cyclopentyl-1H-benzo[d]imidazole-5(6)-carboximidamide trihydrochloride]
melting point: 234 °C (dec.)

COc1cc(-c2nc3ccc(C(=N)NC4CCCC4)cc3[nH]2)ccc1OCCNc1ccnc2cc(Cl)ccc12 (as salt: hydrochloride) [Compound 12d, 2-{3-methoxy-4-[2-(7-chloroquinolin-4-ylamino)ethoxy]phenyl}-N-cyclopentyl-1H-benzo[d]imidazole-5(6)-carboximidamide trihydrochloride]
melting point: 226 °C (dec.)

N=C(NC1CCCC1)c1ccc2nc(-c3ccc(OCCCNc4ccnc5cc(Cl)ccc45)cc3)[nH]c2c1 (as salt: hydrochloride) [Compound 13d]
melting point: > 275 °C

N=C(NC1CCCC1)c1ccc2nc(-c3ccc(OCCCNc4ccnc5cc(Cl)ccc45)c(Br)c3)[nH]c2c1 (as salt: hydrochloride) [Compound 14d]
melting point: 265 °C (dec.)

COc1cc(-c2nc3ccc(C(=N)NC4CCCC4)cc3[nH]2)ccc1OCCCNc1ccnc2cc(Cl)ccc12 (as salt: hydrochloride) [Compound 15d]
melting point: 260 °C (dec.)

CCN(CC)CCCC(C)Nc1ccnc2cc(Cl)ccc12 (centres unmarked) [CQ, Chloroquine, reference compound]
IC50 ([1]; Plasmodium falciparum, DD2, 72 h): 360 ± 27.1 nM | IC50 ([2]; Plasmodium falciparum, 3D7, 72 h): 11.1 ± 0.5 nM

Clc1ccc2c(NCCOc3ccc(-c4nc5ccccc5[nH]4)cc3)ccnc2c1 [Compound 10a]
melting point: 171 to 173 °C | IC50 (HuT78 (T-cell lymphoma); Homo sapiens, HuT78, 72 h): 2800 ± 500 nM | IC50 ([3]; Homo sapiens, Caco-2, 72 h): 6100 ± 4900 nM | IC50 [1, 8]: 3.3 ± 0.1 nM | IC50 ([4]; Homo sapiens, HL-60, 72 h): 1300 ± 900 nM | IC50 [2, 9]: 2.7 ± 0.2 nM | IC50 [5, 10]: 3100 ± 300 nM | IC50 ([6]; Homo sapiens, HeLa): 3400 ± 500 nM | IC50 ([7]; Homo sapiens, THP-1, 72 h): 2400 ± 200 nM

Clc1ccc2c(NCCOc3ccc(-c4nc5ccc(Cl)cc5[nH]4)cc3)ccnc2c1 [Compound 10b, 7-chloro-N-{2-[4-(5(6)-chloro-1H-benzo[d]imidazole-2-yl)phenoxy]ethyl}quinolin-4-amine]
melting point: 222 to 224 °C | IC50 (HuT78 (T-cell lymphoma); Homo sapiens, HuT78, 72 h): 1600 ± 1200 nM | IC50 ([3]; Homo sapiens, Caco-2, 72 h): 1900 ± 200 nM | IC50 [1, 8]: 4.9 ± 0.8 nM | IC50 ([4]; Homo sapiens, HL-60, 72 h): 2000 ± 400 nM | IC50 [2, 9]: 3.5 ± 1.5 nM | IC50 [5, 10]: 4000 ± 1100 nM | IC50 ([6]; Homo sapiens, HeLa): 2700 ± 200 nM | IC50 ([7]; Homo sapiens, THP-1, 72 h): 3400 ± 800 nM

COc1ccc2nc(-c3ccc(OCCNc4ccnc5cc(Cl)ccc45)cc3)[nH]c2c1 [Compound 10c, 7-chloro-N-{2-[4-(5(6)-methoxy-1H-benzo[d]imidazole-2-yl)phenoxy]ethyl}quinolin-4-amine]
melting point: 248 °C (dec.) | IC50 (HuT78 (T-cell lymphoma); Homo sapiens, HuT78, 72 h): 2300 ± 800 nM | IC50 ([3]; Homo sapiens, Caco-2, 72 h): 1700 ± 100 nM | IC50 [1, 8]: 10.1 ± 5 nM | IC50 ([4]; Homo sapiens, HL-60, 72 h): 1800 ± 500 nM | IC50 [2, 9]: 6.8 ± 1.8 nM | IC50 [5, 10]: 4900 ± 1700 nM | IC50 ([6]; Homo sapiens, HeLa): 2600 ± 400 nM | IC50 ([7]; Homo sapiens, THP-1, 72 h): 3800 ± 400 nM

Clc1ccc2c(NCCOc3ccc(-c4nc5ccccc5[nH]4)cc3Br)ccnc2c1 [Compound 11a, N-{2-[4-(1H-benzo[d]imidazole-2-yl)-2-bromophenoxy]ethyl}-7-chloroquinolin-4-amine]
melting point: 226 to 228 °C | IC50 (HuT78 (T-cell lymphoma); Homo sapiens, HuT78, 72 h): 2400 ± 600 nM | IC50 ([3]; Homo sapiens, Caco-2, 72 h): 2100 ± 600 nM | IC50 [1, 8]: 8.7 ± 3.4 nM | IC50 ([4]; Homo sapiens, HL-60, 72 h): 300 ± 300 nM | IC50 [2, 9]: 36.9 ± 1.5 nM | IC50 [5, 10]: 2200 ± 800 nM | IC50 ([6]; Homo sapiens, HeLa): 2600 ± 200 nM | IC50 ([7]; Homo sapiens, THP-1, 72 h): 4900 ± 7300 nM

Clc1ccc2c(NCCOc3ccc(-c4nc5ccc(Cl)cc5[nH]4)cc3Br)ccnc2c1 [Compound 11b, N-{[2-bromo-4-(5(6)-chloro-1H-benzo[d]imidazole-2-yl)phenoxy]ethyl}-7-chloroquinolin-4-amine]
melting point: 238 to 240 °C | IC50 (HuT78 (T-cell lymphoma); Homo sapiens, HuT78, 72 h): 5800 ± 1900 nM | IC50 ([3]; Homo sapiens, Caco-2, 72 h): 13300 ± 2500 nM | IC50 [1, 8]: 88.3 ± 3.1 nM | IC50 ([4]; Homo sapiens, HL-60, 72 h): 1300 ± 900 nM | IC50 [2, 9]: 87.3 ± 3.3 nM | IC50 [5, 10]: 3000 ± 900 nM | IC50 ([6]; Homo sapiens, HeLa): 5400 ± 4600 nM | IC50 ([7]; Homo sapiens, THP-1, 72 h): 4400 ± 5100 nM

N=C(NC1CCCC1)c1ccc2nc(-c3ccc(OCCNc4ccnc5cc(Cl)ccc45)c(Br)c3)[nH]c2c1 [Compound 11d, 2-{3-bromo-4-[2-(7-chloroquinolin-4-ylamino)ethoxy]phenyl}-N-cyclopentyl-1H-benzo[d]imidazole-5(6)-carboximidamide trihydrochloride]
IC50 (HuT78 (T-cell lymphoma); Homo sapiens, HuT78, 72 h): 17300 ± 9200 nM | IC50 ([3]; Homo sapiens, Caco-2, 72 h): > 100000 nM | IC50 [1, 8]: 984 ± 521 nM | IC50 ([4]; Homo sapiens, HL-60, 72 h): 44300 ± 1200 nM | IC50 [2, 9]: 321 ± 32.8 nM | IC50 [5, 10]: > 100000 nM | IC50 ([6]; Homo sapiens, HeLa): > 100000 nM | IC50 ([7]; Homo sapiens, THP-1, 72 h): 33900 ± 3600 nM

COc1cc(-c2nc3ccc(C(=N)NC4CCCC4)cc3[nH]2)ccc1OCCNc1ccnc2cc(Cl)ccc12 [Compound 12d, 2-{3-methoxy-4-[2-(7-chloroquinolin-4-ylamino)ethoxy]phenyl}-N-cyclopentyl-1H-benzo[d]imidazole-5(6)-carboximidamide trihydrochloride]
IC50 (HuT78 (T-cell lymphoma); Homo sapiens, HuT78, 72 h): 16100 ± 4700 nM | IC50 ([3]; Homo sapiens, Caco-2, 72 h): > 100000 nM | IC50 [1, 8]: 120 ± 7.5 nM | IC50 ([4]; Homo sapiens, HL-60, 72 h): 52500 ± 5100 nM | IC50 [2, 9]: 190 ± 11.5 nM | IC50 [5, 10]: > 100000 nM | IC50 ([6]; Homo sapiens, HeLa): > 100000 nM | IC50 ([7]; Homo sapiens, THP-1, 72 h): 100000 nM

N=C(NC1CCCC1)c1ccc2nc(-c3ccc(OCCCNc4ccnc5cc(Cl)ccc45)cc3)[nH]c2c1 [Compound 13d]
IC50 (HuT78 (T-cell lymphoma); Homo sapiens, HuT78, 72 h): 15200 ± 3000 nM | IC50 ([3]; Homo sapiens, Caco-2, 72 h): > 100000 nM | IC50 [1, 8]: 198.3 ± 0.1 nM | IC50 ([4]; Homo sapiens, HL-60, 72 h): 18200 ± 6700 nM | IC50 [2, 9]: 57.4 ± 1.9 nM | IC50 [5, 10]: 83000 ± 5400 nM | IC50 ([6]; Homo sapiens, HeLa): > 100000 nM | IC50 ([7]; Homo sapiens, THP-1, 72 h): 14400 ± 3100 nM

N=C(NC1CCCC1)c1ccc2nc(-c3ccc(OCCCNc4ccnc5cc(Cl)ccc45)c(Br)c3)[nH]c2c1 [Compound 14d]
IC50 (HuT78 (T-cell lymphoma); Homo sapiens, HuT78, 72 h): 19700 ± 4000 nM | IC50 ([3]; Homo sapiens, Caco-2, 72 h): > 100000 nM | IC50 [1, 8]: 451 ± 40.3 nM | IC50 ([4]; Homo sapiens, HL-60, 72 h): 24400 ± 4400 nM | IC50 [2, 9]: 159 ± 22.6 nM | IC50 [5, 10]: > 100000 nM | IC50 ([6]; Homo sapiens, HeLa): > 100000 nM | IC50 ([7]; Homo sapiens, THP-1, 72 h): 100000 nM

N-{2-[4-(1H-benzo[d]imidazole-2-yl)-2-bromophenoxy]propyl}-7-chloroquinolin-4-amine [Compound 14a]
IC50 (HuT78 (T-cell lymphoma); 72 h): 1700 ± 400 nM | IC50 ([3]; 72 h): 5000 ± 7300 nM | IC50 ([1]; chloroquine-resistant strain, three days incubation, HRP2-ELISA, mean ± SD, n ≥ 2): 13 ± 1.9 nM | IC50 ([4]; 72 h): 700 ± 500 nM | IC50 ([2]; chloroquine-sensitive strain, three days incubation, HRP2-ELISA, mean ± SD, n ≥ 2): 9.3 ± 0.9 nM | IC50 ([5]; non-tumor cell line): 600 ± 600 nM | IC50 [6]: 1200 ± 700 nM | IC50 ([7]; 72 h): 5100 ± 1700 nM
